The nature of the data set: Oral dosing to rats, bioavailability. In kind it is in vivo. Particulars: compared to analogous dosing of the compound of Example 36.

With `CNCCN(C)C(=O)n1nc(COc2ccc(Cl)c(Oc3cc(Cl)cc(C#N)c3)c2)c2cccnc21.Cl` [Example 59, 2-[[(3-{[4-chloro-3-(3-chloro-5-cyanophenoxy)phenoxy]methyl}-1H-pyrazolo[3,4-b]pyridin-1-yl)carbonyl](methyl)amino]-N-methylethanaminium chloride], the Bioavailability result is recorded as “substantially higher bioavailability”.

The values are drawn from US7807684B2, “HIV reverse transcriptase inhibitors” (Merck Sharp & Dohme Corp., priority 2005, dated 2010).
